Measured values from patent US11938136B2, “Compositions for treating spinal muscular atrophy” (Hoffmann-La Roche Inc., priority 2015, dated 2024).

How the values were obtained:
[1] = test system: full length SMN2 minigene mRNA; assay: SMN2 minigene mRNA splicing RT-qPCR assay in cultured cells; format: cell-based, human
From the text: The term “EC1.5x concentration for production of full length SMN2 minigene mRNA” (or “EC1.5x minigene”) is defined as that concentration of test compound that is effective in increasing the amount of full length SMN2 minigene mRNA to a level 1.5-fold greater relative to that in vehicle-treated cells.
The reverse transcription-quantitative PCR-based (RT-qPCR) assay is used to quantify the level of the full length SMN2 minigene (referred to herein by the term “FL SMN2mini”) mRNA containing SMN2 exon 7 in a HEK293H cell line stably transfected with said minigene and treated with a test compound. Materials used and respective sources are listed below in Table 1.
The SMN2-A minigene construct was prepared as described in International Patent Application WO2009/151546A1 page 145 paragraph [00400] to page 147 paragraph [00412](incl. FIG. 1 and FIG. 3 therein).
HEK293H cells stably transfected with the SMN2-A minigene construct (10,000 cells/well) are seeded in 200 μL of cell culture medium (DMEM plus 10% FBS, with 200 μg/mL hygromycin) in 96-well flat-bottom plates and the plate is immediately swirled to ensure proper dispersal of cells and the formation of an even monolayer of cells. Cells are allowed to attach for 6 hours. Test compounds are serially diluted 3.16-fold in 100% DMSO to generate a 7-point concentration curve. A solution of test compound (1 μL, 200× in DMSO) is added to each cell-containing well and the plate is incubated for 24 hours in a cell culture incubator (37° C., 5% CO2, 100% relative humidity). 2 replicates are prepared for each test compound concentration. The cells are then lysed in the Cells-To-Ct lysis buffer and the lysate is stored at −80° C.
Full length SMN2-A minigene and GAPDH mRNA are quantified using the primers and probes referenced in WO2014/209841A2 on page 80 in Table 1. Primer SMN Forward A (SEQ ID NO.1) hybridizes to a nucleotide sequence in exon 7 (nucleotide 22 to nucleotide 40), primer SMN Reverse A (SEQ ID NO.2) hybridizes to a nucleotide sequence in the coding sequence of Firefly luciferase, SMN Probe A (SEQ ID NO.3) hybridizes to a nucleotide sequence in exon 7 (nucleotide 50 to nucleotide 54) and exon 8 (nucleotide 1 to nucleotide 21). The combination of these three oligonucleotides detects only SMN1 or SMN2 minigenes (RT-qPCR) and will not detect endogenous SMN1 or SMN2 genes.
The SMN forward and reverse primers are used at final concentrations of 0.4 μM. The SMN probe is used at a final concentration of 0.15 μM. The GAPDH primers are used at final concentrations of 0.2 μM and the probe at 0.15 μM.
The SMN2-minigene GAPDH mix (15 μL total volume) is prepared by combining 7.5 μL of 2×RT-PCR buffer, 0.4 μL of 25×RT-PCR enzyme mix, 0.75 μL of 20×GAPDH primer-probe mix, 4.0075 μL of water, 2 μL of 10-fold diluted cell lysate, 0.06 μL of 100 μM SMN forward primer, 0.06 μL of 100 μM SMN reverse primer, and 0.225 μL of 100 μM SMN probe.
PCR is carried out at the following temperatures for the indicated time: Step 1: 48° C. (15 min); Step 2: 95° C. (10 min); Step 3: 95° C. (15 sec); Step 4: 60° C. (1 min); then repeat Steps 3 and 4 for a total of 40 cycles.
Each reaction mixture contains both SMN2-A minigene and GAPDH primers/probe sets (multiplex design), allowing simultaneous measurement of the levels of two transcripts.
The increase in the abundance of the FL SMN2mini mRNA relative to that in cells treated with vehicle control is determined from real-time PCR data using a modified ΔΔCt method (as described in Livak and Schmittgen, Methods, 2001, 25:402-8). The amplification efficiency E is calculated from the slope of the amplification curve for FL SMN2mini and GAPDH individually. The abundance of FL SMN2mini and GAPDH mRNA are then calculated as (1+E)^−Ct, where Ct is the threshold value for each amplicon. The abundance of FL SMN2mini mRNA is normalized to GAPDH mRNA abundance. […]

SMN protein = SMN protein in brain and quadriceps muscle of SMNΔ7 mice (HTRF); format: in vivo, mouse
Method: (A) SMN protein in brains of C/C-allele mice. (B) SMN protein in brains of SMNΔ7 mice. (C) SMN protein in quadriceps muscle of C/C-allele mice. (D) SMN protein in quadriceps muscle of SMNΔ7 mice. C/C-allele mice and SMNΔ7 mice were treated with the compound of Example 20. One hour after the last dose, brains and quadriceps muscles were collected and levels of SMN protein were assessed by HTRF. Data represent means SEM of 5-6 animals per group and are expressed as fold change vs. vehicle-treated controls. *=p<0.05, **=p<0.01, ***=p<0.001 vs. untreated controls.
In vivo, the compound of Example 20 increases SMN protein in the brain and muscle in the severe SMNΔ7 model and the milder C/C-allele model, carrying human SMN2 transgenes. Adult C/C-allele mice were treated for 10 days with vehicle or the compound of Example 20 (1, 3 or 10 mg/kg PO, daily), and 3 days old (P3) SMNΔ7 mice were treated for 7 days with vehicle or the compound of Example 20 (0.1, 0.3, 1 or 3 mg/kg IP, daily). […] In SMNΔ7 mice, the SMN protein increase was only partial in both brain and muscle, reaching approximately 43% (brain) and 55% (muscle) of protein levels in heterozygous mice.

SMNΔ7 mice = assay: Neuromuscular connectivity and muscle atrophy in SMNΔ7 mice (immunohistochemistry); format: in vivo, mouse; conditions: 0.1, 0.3, 1 mg/kg IP once per day, P3 to P14
Method: SMNΔ7 mice were treated with the compound of Example 20 from P3 to P14, and neuromuscular connectivity and muscle atrophy were assessed by immunohistochemistry. (A) vGlut1-positive proprioceptive inputs in L3-5 spinal cord. (B) Ventral motor axons in L3-5 spinal cord. (C) NMJ innervation onto longissimus muscle. (D) EDL muscle cross-sectional area. Data represent means SEM of 4-5 mice per group. *=p<0.05; **=p<0.01; ***=p<0.001 vs. vehicle-treated SMNΔ7 mice.
Lastly, the compound of Example 20 improves neuromuscular connectivity in a severe SMA mouse model in vivo. SMNΔ7 mice were treated from P3 to P14 by IP application of vehicle or 0.1, 0.3, 1 mg/kg Example 20 once per day. At P14, 1 hour after the last dose spinal cord and muscle tissues were processed for histological assessment.

Cc1cn2nc(-c3cc(=O)n4cc(N5CCNC6(CC6)C5)ccc4n3)cc(C)c2n1 [Example 20, 7-(4,7-diazaspiro[2.5]octan-7-yl)-2-(2,8-dimethylimidazo[1,2-b]pyridazin-6-yl)pyrido[1,2-a]pyrimidin-4-one]
EC (1.5-fold increase) ([1]; Homo sapiens, HEK293-H, HEK293H cells stably transfected with SMN2-A minigene, 24 hours, 7-point concentration curve, read-out: EC1.5x minigene): 0.0047 ± 0.0007 µM
maximum induction of SMN2 minigene full length mRNA ([1]; cells expressing the SMN2 minigene): 20 fold
SMN protein in brain, of protein levels in heterozygous mice (SMN protein; SMNΔ7 mice): approximately 43%
SMN protein in muscle, of protein levels in heterozygous mice (SMN protein; SMNΔ7 mice): ~55%
maximum increase of SMN protein levels in brain and muscle tissue (SMN protein; neonatal SMNΔ7 mice, 1-3 mg/kg IP daily, 7 days from P3): 2-3 fold
fiber size in extensor digitorum longus (EDL) muscles relative to vehicle-treated SMNΔ7 mice (SMNΔ7 mice): dose-dependently and significantly increased
number of motor axons relative to vehicle-treated SMNΔ7 mice (SMNΔ7 mice): dose-dependently and significantly increased
number of vGlut1 inputs relative to vehicle-treated SMNΔ7 mice (SMNΔ7 mice): dose-dependently and significantly increased
percentage of fully innervated NMJs relative to vehicle-treated SMNΔ7 mice (SMNΔ7 mice; longissimus muscle): dose-dependently and significantly increased
